# pEC50: −log10 of the molar value.
# What was measured:
# GnRH receptor [1] = molecular target: T1, GnRH receptor (Homo sapiens, UniProt P30968); assay: Receptor binding assay with 125I-triptorelin on transfected LTK cells; details: competition with 125I-triptorelin, whole LTK cells, 60 minutes at 37° C.
# T1 sequence (P30968 1-328): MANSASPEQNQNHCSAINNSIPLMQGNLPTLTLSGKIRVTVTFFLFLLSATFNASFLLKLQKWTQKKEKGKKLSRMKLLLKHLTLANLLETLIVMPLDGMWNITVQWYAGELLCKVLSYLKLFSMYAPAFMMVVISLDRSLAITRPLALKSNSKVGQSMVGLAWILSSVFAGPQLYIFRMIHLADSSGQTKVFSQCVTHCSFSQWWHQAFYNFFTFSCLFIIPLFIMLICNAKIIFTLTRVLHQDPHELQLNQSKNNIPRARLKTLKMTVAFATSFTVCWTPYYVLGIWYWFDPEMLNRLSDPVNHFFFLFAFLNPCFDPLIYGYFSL
# Description: ^125I-Triptorelin [^125I-(D)-Trp6-GnRH] is ordered from the Biotrend Company (Cologne, Germany). The specific activity in each case is 2.13 Ci/mmol. All other chemicals are ordered from commercial sources at the highest available purity.
# Transfixed LTK′ cells (ATCC No. CCL-11.3) are cultivated in DMEM medium (Invitrogen Life Technologies, Germany) with penicillin (100 I.U./ml), streptomycin (0.1 mg/ml) and glutamine (0.01 mol/l) and 10% fetal calf serum (FCS; Invitrogen Life Technologies, Germany) on plastic tissue culture plates (Nunc, Germany, 245×245×20 nun).
# 80% confluent cell culture plates are washed twice with 50 ml of phosphate-buffered salt solution (PBS) and dissolved below with 0.01 M EDTA solution. The cells are pelletized by centrifuging at 200×g for 5 minutes in a laboratory centrifuge (Kendro, Germany). The cell pellet is resuspended in 3 ml of binding medium (DMEM; 10 mmol of Hepes; 0.5% BSA; 0.1% NaN3; 1 g/l of bacitracin (freshly added, stock 100×); 0.1 g/l of SBTI (freshly added, stock 1000×), and the cell count is determined by means of trypan blue staining in a Neubauer counting chamber. The cell suspension is set with binding medium to a concentration of 5×10^5 Z/0.05 ml.
# Binding tests for competition curves are performed as duplicates. The test substances are used as 10 mmol DMSO solutions. They are diluted with binding medium to 4× the final concentration used. 25 μl of the substance dilution is mixed with 25 μl of tracer solution (^125I-triptorelin). The concentration of tracer is set to about 50,000 cpm (measured in Cobra II, γ-counter, PE Liefe Science, Germany) in the final reaction volume of 100 μl.
# 200 μl of a silicone/paraffin oil mixture (84%:16%) is introduced into 650 μl pointed-bottom tubes (Roth, Germany). 50 μl of the cell suspension is pipetted thereto and subsequently 50 μl of the test substance/tracer mixture. The tubes are sealed and incubated for 60 minutes at 37° C. in an incubator that rotates via the top. After incubation, the samples are centrifuged in a centrifuge (Kendro, Germany) at 900 rpm and subsequently flash-frozen in liquid N2. The tip with the cell pellet is cut off and inserted into the prepared counting tube (Roth, Germany). The remainder of the pointed-bottom tube with the remaining supernatant is also inserted into a counting tube. The measurement is made in a γ-counter for 1 minute/sample.
# The evaluation of the samples is carried out after calculating the specific bond in comparison to untreated cells, after the unspecific bond (excess unlabeled ligand, 1 mmol) is removed by means of GraphPad Prism (GraphPad Software Inc., USA).
# GnRH receptor [2] = molecular target: T1, GnRH receptor; assay: Functional reporter gene assay (luciferase) in LTK cells carrying GnRH receptors, triptorelin stimulation; assay type: cell-based; parameters: expressed in transfected cells; host or cells: LTK cells (ATCC No. CCL-1.3), stably transfected, with CRE / CMV minimal promoter luciferase reporter; details: inhibition of triptorelin/Rolipram-stimulated luciferase reporter
# Description: Functional Reporter Gene Assay
# For performing functional tests, stable, transfixed LTK cells carrying GnRH receptors (ATCC No. CCL-1.3) with a heterologous expression of cAMP responsible elements as well as a CMV minimal promoter-driven luciferase reporter gene are used.
# The cells are cultivated in DMEM medium (Invitrogen Life Technologies, Germany) with penicillin (100 I.U./ml), streptomycin (0.1 mg/ml) and glutamine (0.01 mol/l) and 10% fetal calf serum (FCS; Invitrogen Life Technologies, Germany) on plastic tissue culture plates (Nunc, Germany, 245×245×20 mm).
# 80% confluent cell culture plates are washed twice with 50 ml of phosphate-buffered salt solution (PBS) and subsequently dissolved with trypsin EDTA solution (Invitrogen Life Technologies, Germany). The cells are pelletized by centrifuging at 200×g for 5 minutes in a laboratory centrifuge (Kendro, Germany). The cell pellet is resuspended in 3 ml of assay medium (Invitrogen Life Technologies, Germany) with penicillin (100 I.U./ml), streptomycin (0.1 mg/ml) and glutamine (0.01 mol/l) and 10% fetal calf serum (FCS; Invitrogen Life Technologies, Germany), and the cell count is determined by means of trypan blue staining in a Neubauer counting chamber. The cell suspension is set with assay medium to a concentration of 1×10^4 Z/100 μl. The cells are suspended on white 96-well microtiter plates (Costar, Germany) and incubated for 18 hours in an incubator.
# To perform tests, test substances are diluted as 10 mmol DMSO solutions in assay medium to 6× the final concentration used. 25 μl of the test substance is added to 100 μl cells and incubated for 60 minutes at 37° C., 5% CO2. Then, the addition of triptorelin (D-Trp6-GnRH)/Rolipram solution (6 mmol/6 mmol) and a renewed incubation are carried out for 6 hours at 37° C., 5% CO2.
# After incubation, the addition of 50 μl of lysis/detection buffer (LucLite, PE Life Science) and the measurement in a Lumistar luminometer (BMG Labtechnologies GmBH, Germany) are carried out.
# The evaluation of the samples is carried out after calculating the inhibition in comparison to untreated stimulated cells, after removal of non-stimulated controls, by means of GraphPad Prism (GraphPad Software, Inc., USA) or alternately by means of OMMM (Accelrys, Germany) Software.
SMILES,pEC50 (GnRH receptor [1]),pEC50 (GnRH receptor [2])
"CC[C@H](C)[C@H](NC(=O)OCc1ccccc1)C(=O)N[C@]1(C(=O)N[C@H](C(N)=O)C(C)C)CCc2[nH]c3c(F)cc(F)cc3c2C1 [Compound 293, Phenylmethyl [(1S,2S)-1-[[[(3R)-3-[[[(1S)-1-(aminocarbonyl)-2-methylpropyl]amino]carbonyl]-6,8-difluoro-2,3,4,9-tetrahydro-1H-carbazol-3-yl]amino]car-bonyl]-2-methylbutyl]carbamate]",6.48,6.12
"CC[C@H](C)[C@H](NC(=O)[C@@]1(NC(=O)[C@@H](NC(=O)OCc2ccccc2)[C@@H](C)CC)CCc2[nH]c3c(OC)cccc3c2C1)C(N)=O [Compound 294, Phenylmethyl [(1S,2S)-1-[[[(3R)-3-[[[(1S,2S)-1-(aminocarbonyl)-2-methylbutyl]amino]carbonyl]-8-methoxy-2,3,4,9-tetrahydro-1H-carbazol-3-yl]amino]car-bonyl]-2-methylbutyl]carbamate]",7.44,7.05
"CC[C@H](C)[C@H](NC(=O)OCc1ccccc1)C(=O)N[C@]1(C(=O)N[C@@H](CCc2ccccc2)C(N)=O)CCc2[nH]c3c(Cl)cc(Cl)cc3c2C1 [Compound 299, Phenylmethyl [(1S,2S)-1-[[[(3R)-3-[[[(1S)-1-(aminocarbonyl)-3-phenylpropyl]amino]carbonyl]-6,8-dichloro-2,3,4,9-tetrahydro-1H-carbazol-3-yl]amino]car-bonyl]-2-methylbutyl]carbamate]",5.88,5.82
"CC[C@H](C)[C@H](NC(=O)[C@@]1(NC(=O)[C@@H](NC(=O)OCc2ccccc2)[C@@H](C)CC)CCc2[nH]c3c(Cl)cc(Cl)cc3c2C1)C(=O)O [Compound 301, Phenylmethyl [(1S,2S)-1-[[[(3R)-3-[[[(1S,2S)-1-(carboxy)-2-methylbutyl]amino]carbonyl]-6,8-dichloro-2,3,4,9-tetrahydro-1H-carbazol-3-yl]amino]car-bonyl]-2-methylbutyl]carbamate]",6.27,6.75
"CC[C@H](C)[C@H](NC(=O)[C@@]1(NC(=O)[C@H](Cc2ccc(O)cc2)NC(=O)OCc2ccccc2)CCc2[nH]c3c(Cl)cc(Cl)cc3c2C1)C(N)=O [Compound 302, Phenylmethyl [(1S)-1-[[[(3R)-3-[[[(1S,2S)-1-(aminocarbonyl)-2-methylbutyl]amino]carbonyl]-6,8-dichloro-2,3,4,9-tetrahydro-1H-carbazol-3-yl]amino]car-bonyl]-2-(4-hydroxyphenyl)-ethyl]carbamate]",6.32,6.49
"CC[C@H](C)[C@H](NC(=O)[C@@]1(NC(=O)[C@H](CCc2ccccc2)NC(=O)OCc2ccccc2)CCc2[nH]c3c(Cl)cc(Cl)cc3c2C1)C(N)=O [Compound 304, Phenylmethyl [(1S)-1-[[[(3R)-3-[[[(1S,2S)-1-(aminocarbonyl)-2-methylbutyl]amino]carbonyl]-6,8-dichloro-2,3,4,9-tetrahydro-1H-carbazol-3-yl]amino]car-bonyl]-3-phenylpropyl]carbamate]",7.42,7.74

# The remaining lines, values ahead:
pEC50 (GnRH receptor [1]),pEC50 (GnRH receptor [2]),SMILES
7.74,8.15,"CC[C@H](C)[C@H](NC(=O)[C@@]1(NC(=O)[C@@H](NC(=O)OCc2ccccc2)[C@@H](C)CC)CCc2[nH]c3c(Cl)cc(Cl)cc3c2C1)C(N)=O [Compound 295, Phenylmethyl [(1S,2S)-1-[[[(3R)-3-[[[(1S,2S)-1-(aminocarbonyl)-2-methylbutyl]amino]carbonyl]-6,8-dichloro-2,3,4,9-tetrahydro-1H-carbazol-3-yl]amino]car-bonyl]-2-methylbutyl]carbamate]"
7.66,7.85,"CC[C@H](C)[C@H](NC(=O)OCc1ccccc1)C(=O)N[C@]1(C(=O)N[C@@H](CC(C)C)C(N)=O)CCc2[nH]c3c(Cl)cc(Cl)cc3c2C1 [Compound 296, Phenylmethyl [(1S,2S)-1-[[[(3R)-3-[[[(1S)-1-(aminocarbonyl)-3-methylbutyl]amino]carbonyl]-6,8-dichloro-2,3,4,9-tetrahydro-1H-carbazol-3-yl]amino]car-bonyl]-2-methylbutyl]carbamate]"
6.32,6.55,"CC[C@H](C)[C@H](NC(=O)OCc1ccccc1)C(=O)N[C@]1(C(=O)N[C@@H](CC2CCCCC2)C(N)=O)CCc2[nH]c3c(Cl)cc(Cl)cc3c2C1 [Compound 297, Phenylmethyl [(1S,2S)-1-[[[(3R)-3-[[[(1S)-1-(aminocarbonyl)-2-cyclohexylethyl]amino]carbonyl]-6,8-dichloro-2,3,4,9-tetrahydro-1H-carbazol-3-yl]amino]car-bonyl]-2-methylbutyl]carbamate]"
7.64,7.77,"CCC(C)[C@H](NC(=O)[C@@]1(NC(=O)[C@H](CC2CCCCC2)NC(=O)OCc2ccccc2)CCc2[nH]c3c(Cl)cc(Cl)cc3c2C1)C(N)=O (stereo partly drawn) [Compound 300, Phenylmethyl [(1S,2S)-1-[[[(3R)-3-[[[(1S)-1(aminocarbonyl)-2-methylbutyl]amino]carbonyl]-6,8-dichloro-2,3,4,9-tetrahydro-1H-carbazol-3-yl]amino]car-bonyl]-2-cyclohexylmethyl]-carbamate]"

# From patent US7122570B2, “Tetrahydrocarbazol derivatives as ligands for G-protein-coupled receptors (GPCR)” (Zentaris AG, priority 2001, dated 2006)
